Tests used:
[1] = target: T1, Bromodomain-containing protein 4 [349-460] (Homo sapiens, UniProt O60885); test: In Vitro BRD4 (BD2) Enzymatic Activity Assay
T1 construct: 349-460
Experimental: In the present application, IC50 values of the compounds in inhibiting BRD4 (BD2) enzyme binding reaction were determined by homogeneous time resolved fluorescence (HTRF). A compound was serially diluted 5-fold with 100% DMSO starting from 1 mM (7 concentrations in total), and then 2 μL of the compound at each concentration was added to 18 μL of a reaction buffer (20 mM HEPES pH 7.5, 150 mM NaCl, 5 mM DTT, 0.005% Tween 20, and 100 μg/mL BSA) for dilution. After being mixed well, 2 μL of the compound at each concentration was added to 48 μL of the above reaction buffer for dilution, and mixed well (final concentration of the compound in DMSO: 0.1%). 2.5 μL of the resulting mixture was added to a 384-well plate (OptiPlate-384, purchased from PerkinElmer), then 5 μL of GST-BRD4 (BD2, 349-460 aa) (final concentration: 2 nM) was added, and the resulting mixture was centrifuged, and fully mixed. 2.5 μL of a peptide Biotin-AHA-SGRGK(Ac)GGK(Ac)GLGK(Ac)GGAK(Ac) RHRKV (final concentration: 200 nM) was then added to initiate the reaction (total reaction volume: 10 μL). […] After being incubated in the incubator for another 1 hour, the fluorescence values (excited at 320 nm, emitted light at 665 nm and 620 nm being detected, and the ratio of the two being the enzyme binding signal) were read on Envision (purchased from PerkinElmer).

[2] = target: T2, Bromodomain-containing protein 4 [44-168] (Human, UniProt O60885); test: In Vitro BRD4 (BD1) Enzymatic Activity Assay
T2 construct: 44-168
Experimental: In the present application, IC50 values of the compounds in inhibiting BRD4 (BD1) enzyme binding reaction were determined by homogeneous time resolved fluorescence (HTRF). A compounds was serially diluted 5-fold with 100% DMSO starting from 0.2 mM (7 concentrations in total), and then 2 μL of the compound at each concentration was added to 48 μL of a reaction buffer (20 mM HEPES pH 7.5, 150 mM NaCl, 5 mM DTT, 0.005% Tween 20, and 100 μg/mL BSA) for dilution, and mixed well. 2.5 μL of the resulting mixture was added to a 384-well plate (OptiPlate-384, purchased from PerkinElmer), then 5 μL of GST-BRD4 (BD1, 44-168 aa) (final concentration: 1 nM) was added, and the resulting mixture was centrifuged, and fully mixed. 2.5 μL of a short peptide Biotin-AHA-SGRGK(Ac)GGK(Ac)GLGK(Ac)GGAK(Ac) RHRKV (final concentration: 100 nM) was then added to initiate the reaction (total reaction volume: 10 μL). […] After being incubated in the incubator for another 1 hour, the fluorescence values (excited at 320 nm, emitted light at 665 nm and 620 nm being detected, and the ratio of the two being the enzyme binding signal) were read on Envision (purchased from PerkinElmer).

IC50 [1] | IC50 [2] | SMILES
0.51 nM | 14.7 nM | CCNC(=O)c1cc2c(-c3cc(N=S(C)(C)=O)ccc3Oc3ccc(S(C)(=O)=O)cc3)cn(C)c(=O)c2[nH]1 [US12030880, Example 1]
0.98 nM | 1.4 nM | Cn1cc(-c2cc(N=S(C)(C)=O)ccc2Oc2ccc(C#N)cc2F)c2cc[nH]c2c1=O [US12030880, Example 2]

Reference: BindingDB's records for patent US12030880 (Chia Tai Tianqing Pharmaceutical Group, 2024)
